# Laboratory results taken from patent US7884247B2, “Salt of dimethylaminomethyl-phenyl-cyclohexane and crystalline forms thereof” (Gruenenthal GmbH, priority 2005, dated 2011).
# Columns and labels:
# [1] = Damp storage and drying of maleate and hydrochloride (XRD, DSC, dry weight, Karl-Fischer water content); format: physicochemical; conditions: for Change in crystalline form by X-ray diffraction pattern: after damp storage (25° C., 75% and 95% R.H., 7 days) and drying (50° C., vacuum, 7 days)
# Description: Maleate and hydrochloride according to Example E8 are stored firstly at 25° C. and 75% and 95% relative atmospheric humidity for 7 days and thereafter are dried for 7 days in the drying cabinet at 50° C. under a vacuum. Before storage begins, X-ray diffraction patterns (XRD) are recorded, DSC performed to determine transition points (Tp), dry weight (DW) and the Karl-Fischer water content (WC) are determined and the same values again after damp storage and drying. The X-ray diffraction patterns show no change in crystalline forms A and D after damp storage and drying. The initial vales for the hydrochloride are Tp=116.27° C., DW=6.35% and WC 8.00%. The initial values for the maleate are Tp=170.4° C. and 179.85° C., DW=0 and WC=0.2%. The results are given in Tables 3 (75% relative atmospheric humidity) and 4 (95% relative atmospheric humidity).
# [2] = Storage under elevated atmospheric humidity, samples investigated by Raman spectroscopy; format: physicochemical; conditions: room temperature, 75% relative atmospheric humidity
# Excerpt: The amorphous form according to Example B1 is stored at room temperature and 75% relative atmospheric humidity and samples are investigated after 2 days, 1, 2, 3, 4 and 8 weeks using Raman spectroscopy. […] The same mixture is still observed after 8 weeks.
# The maleate produced according to Example A1 is stored at room temperature and 75% relative atmospheric humidity and samples are investigated after 3 days, 1, 2, 3, 4, 8 and 10 weeks using Raman spectroscopy.
# The crystalline form B produced according to Example D1 is stored at room temperature and 75% relative atmospheric humidity and samples are investigated after 3 days, 1, 2, 3, 4 and 8 weeks using Raman spectroscopy.
# FT Raman spectra are recorded using a Bruker RFS 100 FT-Raman system, which is operated with an Nd:YAG laser (wavelength 1064 nm) and a germanium detector cooled with liquid nitrogen. For each sample, 64 scans are accumulated with a resolution of 2 cm^−1. In general, a laser power of 100 mW is used.
# [3] = General properties stated in the description (solubility, hygroscopicity)
# [4] = Stability at elevated temperature in open and closed vessels (HPLC, FT Raman); format: physicochemical
# Description: The crystalline forms are stored in open and closed vessels and, after a predetermined time, possible changes are measured chromatographically (HPLC) as stability parameters.
# [5] = Water absorption of maleate and hydrochloride by DVS (Example E8, comparison); format: physicochemical; conditions: 25° C.
# Description: (§1) Water absorption is determined by means of dynamic water vapour absorption (Dynamic Vapour Sorption, DVS) using apparatus DVS-1 from Surface Measurement System Ltd. The sample is placed in a platinum crucible at the tip of a microchemical balance. Then the sample is firstly equilibrated at 50% relative atmospheric humidity and then subjected to a predefined measuring program. The temperature is 25° C. The change in weight of the sample is determined after a stepwise increase in relative atmospheric humidity by 10% steps up to 90%.
# [6] = Stability under pressure (tablet pressing); format: physicochemical; conditions: tablet press, vacuum, 100 MPa, 60 minutes
# Description: The maleate produced according to Example A1 is introduced into a tablet press and pressed under a vacuum at a pressure of 100 MPa for 60 minutes to form a tablet.
# The procedure is carried out in accordance with Example E5a) with crystalline form B according to Example D1.
# [7] = Stability under grinding conditions (trituration, ball mill); format: physicochemical
# Description: The maleate produced according to Example A1 is triturated with a pestle in a mortar for 5 minutes. […] Amorphous fractions are not observed.
# Crystalline form B according to Example D1 is triturated with a pestle in a mortar for 5 minutes.
# The maleate produced according to Example A1 is introduced into an agate ball mill (Retsch MM200 mixing mill with 5 mm agate ball) and ground at 20 Hz and room temperature for 180 minutes. […] Amorphous fractions are not observed.
# The procedure is carried out in accordance with Example E4c) with crystalline form B according to Example D1.
# [8] = Water absorption by Dynamic Vapour Sorption (Example E6); format: physicochemical; conditions: 25° C.; for Crystalline form at the end of the DVS measuring cycle: maleate; for Water absorption: DVS
# Description: as §1, with “determined.” for “determined after a stepwise increase in relative atmospheric humidity by 10% steps up to 90%.”
# [9] = Storage of amorphous form at room temperature and 20% or 90% atmospheric humidity for 24 hours; format: physicochemical; conditions: 20 mg, room temperature
# [10] = 75% R.H. storage, then dried 7 days at 50° C. under vacuum
# [11] = 95% R.H. storage, then dried 7 days at 50° C. under vacuum
# [12] = after damp storage, 25° C., 75% relative atmospheric humidity, 7 days
# [13] = after damp storage, 25° C., 95% relative atmospheric humidity, 7 days
# [14] = 40° C./75% R.H., 1 week, maleate
# [15] = 60° C. (closed), 1 week, maleate
# [16] = 60° C. (closed), 4 weeks, maleate
# [17] = 60° C./75% R.H., 4 weeks, maleate
SMILES,"Tp [1, 10] [°C]","WC [1, 10] [%]","WC [1, 11] [%]",Change in crystalline form by X-ray diffraction pattern [1],"Tp [1, 12] [°C]","WC [1, 12] [%]","WC [1, 13] [%]","DW (dry weight) ([1]; initial value, before storage) [%]","WC (Karl-Fischer water content) ([1]; initial value, before storage) [%]",Hygroscopicity [3],Solubility in polar solvents [3],"HPLC [4, 14] [%]","HPLC [4, 15] [%]","HPLC [4, 16] [%]","HPLC [4, 17] [%]","HPLC ([4]; −18° C. (reference), 4 weeks) [%]",Crystalline form at the end of the DVS measuring cycle [8],Water absorption ([8]; measuring cycle),"Crystalline form found by Raman spectroscopy after storage ([2]; after 8 weeks, maleate)",other results
"CN(C)C[C@@H]1CCCC[C@H]1c1cccc(O)c1.O=C(O)/C=C\C(=O)O [Crystalline form A, (+)-(1R,2R)-3-[2-(dimethylamino)methyl-(cyclohex-1-yl)]-phenol maleate]",165.33,0.20,0.50,no change,165.41,0.20,0.20,0,0.2,non-hygroscopic,very good,100.2,100.2,100.5,100.3,100,unchanged crystalline form A,approx. 0.2 wt. %,,"Crystalline form found by Raman spectroscopy after storage ([2]; after 10 weeks): virtually unchanged; Stability at elevated temperature (summary) ([4]; storage in open and closed vessels): very stable with regard to chemical stability and crystal shape; Release of the absorbed moisture ([5]; at approx. 10% relative atmospheric humidity): released again completely; Water absorption ([5]; relative atmospheric humidity raised in 10% steps up to 90%): 0.06%; Crystalline form after tablet pressing ([6]; listed as Example A1, maleate): unchanged form; Amorphous fractions after grinding ([7]; agate ball mill, 20 Hz, room temperature, 180 minutes): not observed; Crystalline form after grinding ([7]; agate ball mill, 20 Hz, room temperature, 180 minutes, listed as Example A1, maleate): unchanged form; Amorphous fractions after trituration ([7]; pestle in a mortar, 5 minutes): not observed; Crystalline form after trituration ([7]; pestle in a mortar, 5 minutes, listed as Example A1, maleate): unchanged form"
"CN(C)C[C@@H]1CCCC[C@H]1c1cccc(O)c1.O=C(O)/C=C\C(=O)O [Crystalline form B, (+)-(1R,2R)-3-[2-(dimethylamino)methyl-(cyclohex-1-yl)]-phenol maleate]",,,,,,,,,,,very good,100.3,100.6,100.9,101.1,100,mixture of crystalline forms A and B,approx. 0.2 wt. %,virtually unchanged,"FT Raman (determination of crystalline form) ([4]; 40° C./75% R.H., 1 week): A and B; FT Raman (determination of crystalline form) ([4]; 60° C. (closed), 1 week): A and B; FT Raman (determination of crystalline form) ([4]; 60° C. (closed), 4 weeks): A and B; FT Raman (determination of crystalline form) ([4]; 60° C./75% R.H., 4 weeks): A and B; FT Raman (determination of crystalline form) ([4]; −18° C. (reference), 4 weeks): A and B; Crystalline form after tablet pressing ([6]; maleate): mixture of crystalline forms A and B; Crystalline form after grinding ([7]; agate ball mill, 20 Hz, room temperature, 180 minutes, maleate): mixture of crystalline forms A and B; Crystalline form after trituration ([7]; pestle in a mortar, 5 minutes, maleate): mixture of crystalline forms A and B"
"CN(C)C[C@@H]1CCCC[C@H]1c1cccc(O)c1.Cl [Hydrochloride, (+)-(1R,2R)-3-[2-(dimethylamino)methyl-(cyclohex-1-yl)]-phenol hydrochloride]",113.83,6.00,6.60,no change,116.22,8.50,8.50,6.35,8.00,decidedly hygroscopic,,,,,,,,,,"DW [1, 10]: 6.12%; DW [1, 11]: 6.74; Tp [1, 11]: 114.47 °C; DW [1, 12]: 5.92%; DW [1, 13]: 7.84%; Tp [1, 13]: 116.52 °C; Tp (transition point, DSC) ([1]; initial value, before storage): 116.27 °C; Water absorption altogether ([5]; further increase to 90% relative atmospheric humidity): approx. 5 wt. %; Water absorption ([5]; relative atmospheric humidity increased to approx. 75%): approx. 2 wt. %; Water released on desorption altogether ([5]; relative atmospheric humidity lowered in 10% steps): 8.5%"
"CN(C)C[C@@H]1CCCC[C@H]1c1cccc(O)c1.O=C(O)/C=C\C(=O)O [amorphous form, (+)-(1R,2R)-3-[2-(dimethylamino)methyl-(cyclohex-1-yl)]-phenol maleate]",,,,,,,,,,,,,,,,,mixture of crystalline forms A and B,,same mixture,Form obtained after storage ([9]; 20% atmospheric humidity): mixture of crystalline forms A and B; Form obtained after storage ([9]; 90% atmospheric humidity): only crystalline form A; Crystalline form found by Raman spectroscopy after storage ([2]; after 2 days): mixture of crystalline forms A and B; Water absorption ([8]; up to approx. 33% relative atmospheric humidity): approx. 2.2 wt. %
